Laboratory results reported in the supplement of paper PMC6965134.
Values belong to the compound of their own block, whether it stands above or below them.

Assay: TIMS collisional cross section (CCS, N2) of the lipid ion; higher = larger ion cross section
Details: ionization mode: negative, one isomer drawn
Method: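 Lipid extracts of human plasma (NIST SRM 1950), mouse liver or HeLa cells were separated by nanoflow C18 LC (30 min gradient) and analysed by TIMS-PASEF on a timsTOF Pro. Ion mobility was calibrated with the Agilent tuning mix (negative mode ions) and converted to collisional cross sections (Mason–Schamp, N2).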

[1] = sample type: Mouse Liver, ion (formula + adduct): [C40H75O10P-H] 1-
[2] = sample type: Human plasma, ion (formula + adduct): [C47H83O13P-H] 1-
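Also: lipids from MTBE extraction, five replicate injections per sample, 100 ms TIMS ramp spanning 0.6–1.95 Vs/cm², lipid identity assigned from PASEF MS/MS spectra.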

TIMS collisional cross section (sample type: Mouse Liver, ion (formula + adduct): [C40H82NO7P-CH3] 1-): 267.9 Å²
SMILES: CCCCCCCCCCCCCCCCCCOC[C@H](COP(=O)(O)OCCN)OC(=O)CCCCCCCCCCCCCCCC [PE O- 18:0_17:0]

TIMS collisional cross section (sample type: Human plasma, ion (formula + adduct): [C44H88NO7P+AcO] 1-): 303.7 Å²
SMILES: CCCCCCCCC/C=C\CCCCCCCC(=O)O[C@H](COCCCCCCCCCCCCCCCCCCCC)COP(=O)(O)OCCN [PE O- 20:0@_19:1]

TIMS collisional cross section (sample type: Human plasma, ion (formula + adduct): [C39H74NO7P-H] 1-): 265.6 Å²
SMILES: CCCCC/C=C\C/C=C\CCCCCCCC(=O)O[C@H](CO/C=C\CCCCCCCCCCCCCC)COP(=O)(O)OCCN [PE P- 16:0@_18:2]

TIMS collisional cross section (sample type: Human plasma, ion (formula + adduct): [C41H76NO7P-H] 1-): 271.2 Å²
TIMS collisional cross section (sample type: Mouse Liver, ion (formula + adduct): [C41H76NO7P-H] 1-): 271.2 Å²
SMILES: CCCCC/C=C\C/C=C\C/C=C\CCCCCCC(=O)O[C@H](CO/C=C\CCCCCCCCCCCCCC)COP(=O)(O)OCCN [PE P- 16:0@_20:3]

TIMS collisional cross section (sample type: Human plasma, ion (formula + adduct): [C41H72NO7P+AcO] 1-): 283.1 Å²
TIMS collisional cross section (sample type: Human plasma, ion (formula + adduct): [C41H72NO7P-H] 1-): 268.9 Å²
SMILES: CC/C=C\C/C=C\C/C=C\C/C=C\C/C=C\CCCC(=O)O[C@H](CO/C=C\CCCCCCCCCCCCCC)COP(=O)(O)OCCN [PE P- 16:0@_20:5]

TIMS collisional cross section (sample type: Human plasma, ion (formula + adduct): [C43H78NO7P-H] 1-): 276.3 Å²
SMILES: CCCCC/C=C\C/C=C\C/C=C\C/C=C\CCCCCC(=O)O[C@H](CO/C=C\CCCCCCCCCCCCCC)COP(=O)(O)OCCN [PE P- 16:0@_22:4]

TIMS collisional cross section (sample type: Human plasma, ion (formula + adduct): [C43H74NO7P-H] 1-): 274 Å²
TIMS collisional cross section (sample type: Mouse Liver, ion (formula + adduct): [C43H74NO7P-H] 1-): 274.6 Å²
SMILES: CC/C=C\C/C=C\C/C=C\C/C=C\C/C=C\C/C=C\CCC(=O)O[C@H](CO/C=C\CCCCCCCCCCCCCC)COP(=O)(O)OCCN [PE P- 16:0@_22:6]

TIMS collisional cross section (sample type: Human plasma, ion (formula + adduct): [C41H78NO7P-CH3] 1-): 269 Å²
SMILES: CCCCC/C=C\C/C=C\CCCCCCCC(=O)O[C@H](CO/C=C\CCCCCCCCCCCCCCCC)COP(=O)(O)OCCN [PE P- 18:0@_18:2]

TIMS collisional cross section (sample type: Mouse Liver, ion (formula + adduct): [C45H82NO7P-H] 1-): 281.9 Å²
SMILES: CCCCC/C=C\C/C=C\C/C=C\C/C=C\CCCCCC(=O)O[C@H](CO/C=C\CCCCCCCCCCCCCCCC)COP(=O)(O)OCCN [PE P- 18:0_22:4]

TIMS collisional cross section (sample type: Mouse Liver, ion (formula + adduct): [C40H77O10P-H] 1-): 275.7 Å²
SMILES: CCCCCCCCC=CCCCCCCCC(=O)OC(COC(=O)CCCCCCCCCCCCCCC)COP(=O)(O)OCC(O)CO (centres undefined) [PG 16:0_18:1]

TIMS collisional cross section [1]: 273.4 Å²
SMILES: CCCCC/C=C\C/C=C\CCCCCCCC(=O)O[C@H](COC(=O)CCCCCCCCCCCCCCC)COP(=O)(O)OC[C@@H](O)CO [PG 16:0_18:2]

TIMS collisional cross section (sample type: Mouse Liver, ion (formula + adduct): [C46H75O10P-H] 1-): 287.5 Å²
SMILES: CC/C=C\C/C=C\C/C=C\C/C=C\C/C=C\C/C=C\CCC(=O)O[C@H](COC(=O)CCCCCCC/C=C\C/C=C\CCCCC)COP(=O)(O)OC[C@@H](O)CO [PG 18:2_22:6]

TIMS collisional cross section (sample type: Mouse Liver, ion (formula + adduct): [C44H75O10P-H] 1-): 284.1 Å²
SMILES: CCCCC/C=C\C/C=C\C/C=C\C/C=C\CCCC(=O)OC[C@H](COP(=O)(O)OC[C@@H](O)CO)OC(=O)CCCCCCC/C=C\C/C=C\CCCCC [PG 20:4_18:2]

TIMS collisional cross section (sample type: Mouse Liver, ion (formula + adduct): [C50H79O10P-H] 1-): 297.7 Å²
SMILES: CC/C=C\C/C=C\C/C=C\C/C=C\C/C=C\C/C=C\CCC(=O)OC[C@H](COP(=O)(O)OC[C@@H](O)CO)OC(=O)CCCCC/C=C\C/C=C\C/C=C\C/C=C\CCCCC [PG 22:6@_22:4]

TIMS collisional cross section (sample type: Human plasma, ion (formula + adduct): [C41H73O13P+AcO] 1-): 287.2 Å²
SMILES: CCCC/C=C\CCCCCCCC(=O)OCC(COP(=O)(O)OC1C(O)C(O)C(O)C(O)C1O)OC(=O)CCCCCCC/C=C\C/C=C\CCCCC (centres undefined) [PI 14:1@_18:2]

TIMS collisional cross section [2]: 298.1 Å²
SMILES: CCCCC/C=C\C/C=C\C/C=C\C/C=C\CCCC(=O)O[C@H](COC(=O)CCCCCCCCCCCCCCCCC)COP(=O)(O)OC1C(O)C(O)C(O)[C@@H](O)C1O (some centres undefined) [PI 18:0_20:4@]

More lines, now with the values behind:

SMILES: CC/C=C\C/C=C\C/C=C\C/C=C\CCCCC(=O)O[C@H](CO/C=C\CCCCCCCCCCCCCC)COP(=O)(O)OCCN [PE P- 16:0@_18:4]
TIMS collisional cross section (sample type: Human plasma, ion (formula + adduct): [C39H70NO7P+AcO] 1-): 275.7 Å²

SMILES: CCCCCCCC/C=C\CCCCCCCCCC(=O)O[C@H](CO/C=C\CCCCCCCCCCCCCC)COP(=O)(O)OCCN [PE P- 16:0@_20:1]
TIMS collisional cross section (sample type: Mouse Liver, ion (formula + adduct): [C41H80NO7P-H] 1-): 273.5 Å²

SMILES: CCCCC/C=C\C/C=C\C/C=C\C/C=C\CCCC(=O)O[C@H](CO/C=C\CCCCCCCCCCCCCC)COP(=O)(O)OCCN [PE P- 16:0_20:4]
TIMS collisional cross section (sample type: Human plasma, ion (formula + adduct): [C41H74NO7P-H] 1-): 270.1 Å²
TIMS collisional cross section (sample type: Mouse Liver, ion (formula + adduct): [C41H74NO7P-H] 1-): 270.1 Å²

SMILES: CC/C=C\C/C=C\C/C=C\C/C=C\C/C=C\CCCC(=O)O[C@H](CO/C=C\CCCCCCCCCCCCCCCC)COP(=O)(O)OCCN [PE P- 18:0@_20:5]
TIMS collisional cross section (sample type: Mouse Liver, ion (formula + adduct): [C43H76NO7P-H] 1-): 274.5 Å²

SMILES: CC/C=C\C/C=C\C/C=C\C/C=C\C/C=C\C/C=C\CCC(=O)O[C@H](CO/C=C\CCCCCCCCCCCCCCCC)COP(=O)(O)OCCN [PE P- 18:0@_22:6]
TIMS collisional cross section (sample type: Human plasma, ion (formula + adduct): [C45H78NO7P-CH3] 1-): 276.8 Å²

SMILES: CCCCC/C=C\C/C=C\CCCCCCCC(=O)O[C@H](CO/C=C\CCCCCCCCCCCCCCCC)COP(=O)(O)OCCN [PE P- 18:0_18:2]
TIMS collisional cross section (sample type: Human plasma, ion (formula + adduct): [C41H78NO7P-H] 1-): 272.4 Å²

SMILES: CC/C=C\C/C=C\C/C=C\C/C=C\C/C=C\C/C=C\CCC(=O)O[C@H](CO/C=C\CCCCCC/C=C\CCCCCCCC)COP(=O)(O)OCCN [PE P- 18:1@_22:6]
TIMS collisional cross section (sample type: Mouse Liver, ion (formula + adduct): [C45H76NO7P-H] 1-): 278.5 Å²

SMILES: CCCCC/C=C\C/C=C\CCCCCCCC(=O)O[C@H](CO/C=C\CCCCCCCCCCCCCCCCCC)COP(=O)(O)OCCN [PE P- 20:0@_18:2]
TIMS collisional cross section (sample type: Human plasma, ion (formula + adduct): [C43H82NO7P-H] 1-): 278.6 Å²

SMILES: CC/C=C\C/C=C\C/C=C\C/C=C\C/C=C\C/C=C\CCC(=O)O[C@H](COC(=O)CCCCCCC/C=C\CCCCCCC)COP(=O)(O)OC[C@@H](O)CO [PG 17:1@_22:6]
TIMS collisional cross section (sample type: Human plasma, ion (formula + adduct): [C45H75O10P+OAcO] 1-): 294.7 Å²

SMILES: CCCCCC/C=C\CCCCCCCC(=O)O[C@H](COC(=O)CCCCCCC/C=C\CCCCCCCC)COP(=O)(O)OC[C@@H](O)CO [PG 18:1_16:1]
TIMS collisional cross section [1]: 276.9 Å²

SMILES: CC/C=C\C/C=C\C/C=C\C/C=C\C/C=C\C/C=C\CCC(=O)O[C@H](COC(=O)CCCCCCC/C=C\CCCCCCCC)COP(=O)(O)OC[C@@H](O)CO [PG 18:1_22:6@]
TIMS collisional cross section (sample type: Mouse Liver, ion (formula + adduct): [C46H77O10P-H] 1-): 288.6 Å²

SMILES: CCCCC/C=C\C/C=C\CCCCCCCC(=O)OC[C@H](COP(=O)(O)OC[C@@H](O)CO)OC(=O)CCCCCCC/C=C\CCCCCCCC [PG 18:2_18:1]
TIMS collisional cross section (sample type: Mouse Liver, ion (formula + adduct): [C42H77O10P-H] 1-): 281.4 Å²

SMILES: CCCCC/C=C\C/C=C\C/C=C\C/C=C\CCCC(=O)OC[C@H](COP(=O)(O)OC[C@@H](O)CO)OC(=O)CCCCCCC/C=C\CCCCCCCC [PG 20:4_18:1@]
TIMS collisional cross section (sample type: Mouse Liver, ion (formula + adduct): [C44H77O10P-H] 1-): 285.3 Å²

SMILES: CC/C=C\C/C=C\C/C=C\C/C=C\C/C=C\C/C=C\CCC(=O)O[C@H](COC(=O)CCC/C=C\C/C=C\C/C=C\C/C=C\CCCCC)COP(=O)(O)OC[C@@H](O)CO [PG 20:4_22:6]
TIMS collisional cross section (sample type: Mouse Liver, ion (formula + adduct): [C48H75O10P-H] 1-): 291.4 Å²

SMILES: CC/C=C\C/C=C\C/C=C\C/C=C\C/C=C\C/C=C\CCC(=O)OC[C@H](COP(=O)(O)OC[C@@H](O)CO)OC(=O)CCCCCCC/C=C\CCCCCC [PG 22:6@_16:1]
TIMS collisional cross section (sample type: Mouse Liver, ion (formula + adduct): [C44H73O10P-H] 1-): 283 Å²

SMILES: CC/C=C\C/C=C\C/C=C\C/C=C\C/C=C\C/C=C\CCC(=O)OC[C@H](COP(=O)(O)OC[C@@H](O)CO)OC(=O)CC/C=C\C/C=C\C/C=C\C/C=C\C/C=C\C/C=C\CC [PG 22:6_22:6]
TIMS collisional cross section (sample type: Mouse Liver, ion (formula + adduct): [C50H75O10P-H] 1-): 294.8 Å²

SMILES: CCCCCC/C=C\CCCCCCCC(=O)OC[C@H](COP(=O)(O)OC1C(O)C(O)C(O)[C@@H](O)C1O)OC(=O)CCCCCCCCCCCCCCC (some centres undefined) [PI 16:1_16:0@]
TIMS collisional cross section (sample type: Human plasma, ion (formula + adduct): [C41H77O13P-H] 1-): 282.6 Å²

SMILES: CCCCC/C=C\C/C=C\C/C=C\C/C=C\CCCC(=O)O[C@H](COC(=O)CCCCCCCCCCCCCCCCC)COP(=O)(O)OC1C(O)C(O)C(O)[C@@H](O)C1O (some centres undefined) [PI 18:0_20:4]
TIMS collisional cross section [2]: 297.6 Å²
TIMS collisional cross section (sample type: Mouse Liver, ion (formula + adduct): [C47H83O13P-H] 1-): 297.6 Å²
